Our source for the IC50 and inhibition values is patent US10144742B2 (Millennium Pharmaceuticals, Inc., priority 2014, dated 2018).

One assay concerns the target hNAMPT protein (Homo sapiens (Human), UniProt P43490). Nature of the assay: NAMPT enzyme assay (TR-FRET/HTRF, BodiPY ligand, anti 6His-Tb). It is filed as binding. Conditions: for IC50: NAMPT IC50 range class, read-out: IC50; for inhibition at 1 µM: read-out: Percent Inhibition. Summed up: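 TR-FRET binding assay in which His-tagged human NAMPT with anti-6His-Tb is displaced by compound from a BodiPY ligand, incubated 1 h at rt in the dark. Excitation was at 320 nm, with the 520/486 nm emission ratio read. IC50 was fitted from inhibition relative to DMSO controls.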

For the next assay, the system named is PC3 cells. Nature of the assay: PC3 growth inhibition (Cell-titer glo, 72 hours). It is filed as cell-based. Conditions: Homo sapiens, read-out: Percent Inhibition (PC3 growth inhibition); for inhibition at 1.667 µM: compound concentration 1.667 μM. A digest of the protocol:
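PC3 cells in RPMI1640 seeded overnight at 37 °C, 5% CO2, then exposed to compound diluted in AIM serum-free medium for 72 h. Viability by CellTiter-Glo luminescence vs DMSO controls; single-concentration % remaining viability (1 μM or 1.667 μM), or GI50/LD50 from curves.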

[1] abbreviates: PC-3, compound concentration 1 μM, PC3 cells, 72 hours, Cell-titer glo.
Where [2] appears, read: PC-3, PC3 cells, 72 hours, Cell-titer glo.

Like-named read-outs stand apart in the source and are kept apart here.

Sequence of hNAMPT protein (P43490 whole entry): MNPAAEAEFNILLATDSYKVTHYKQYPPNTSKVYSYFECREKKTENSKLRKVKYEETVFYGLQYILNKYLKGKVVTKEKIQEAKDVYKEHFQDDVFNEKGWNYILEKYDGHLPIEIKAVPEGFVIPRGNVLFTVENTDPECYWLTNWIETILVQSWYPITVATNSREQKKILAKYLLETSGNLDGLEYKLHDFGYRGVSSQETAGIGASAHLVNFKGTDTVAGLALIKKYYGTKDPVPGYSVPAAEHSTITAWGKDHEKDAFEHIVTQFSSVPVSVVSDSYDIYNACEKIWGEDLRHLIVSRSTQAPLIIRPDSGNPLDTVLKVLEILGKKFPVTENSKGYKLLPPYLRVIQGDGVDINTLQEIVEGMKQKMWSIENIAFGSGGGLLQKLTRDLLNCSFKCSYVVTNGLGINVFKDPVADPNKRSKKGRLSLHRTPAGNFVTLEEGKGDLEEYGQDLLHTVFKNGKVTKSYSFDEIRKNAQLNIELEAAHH

Regarding `CN(CCc1cccnc1)C(=O)c1ccc2nc(-c3ccc(F)cc3)c(-c3ccc(F)cc3)nc2c1` [Compound I-84, 2,3-bis(4-fluorophenyl)-N-methyl-N-[2-(pyridin-3-yl)ethyl]quinoxaline-6-carboxamide], the IC50 at hNAMPT protein was 2000 to 10000 nM. Further, the inhibition at 1 µM at hNAMPT protein (compound concentration 1 μM) is 17%; in the assay on PC3 cells (setting [1]), 85%.

Turning to `CC(C)(C)OC(=O)NCc1cccc(-c2nc3cc(C(=O)NCCCn4ccnc4)ccc3nc2-c2ccccc2)c1` [Compound I-85, tert-Butyl [3-(7-{[3-(1H-imidazol-1-yl)propyl]carbamoyl}-3-phenylquinoxalin-2-yl)benzyl]carbamate], on hNAMPT protein, the IC50 lay within 2000 to 10000 nM and the inhibition at 1 µM was 25%. Also, the inhibition at 1 µM with PC3 cells (PC-3, 72 h) was 8%.

As to `O=C(NCCOc1cccnc1)c1ccc2nc(Cl)c(-c3ccc(F)cc3)nc2c1` [Compound I-86, 2-chloro-3-(4-fluorophenyl)-N-[2-(pyridin-3-yloxy)ethyl]quinoxaline-6-carboxamide], the IC50 at hNAMPT protein was less than 100 nM. The inhibition at 1 µM at hNAMPT protein (compound concentration 1 μM) is 62%. Also, the inhibition at 1.667 µM in the assay with PC3 cells (setting [2]) came to 3%.

Consider `O=C(NCCCn1ccnc1)c1ccc2nc(-c3ccccc3)c(N3CCCC(O)C3)nc2c1` (stereo not drawn) [Compound I-87, 3-(3-hydroxypiperidin-1-yl)-N-[3-(1H-imidazol-1-yl)propyl]-2-phenylquinoxaline-6-carboxamide], for which, on hNAMPT protein, the IC50 was 1000 to 2000 nM. Moreover, the inhibition at 1 µM at hNAMPT protein (compound concentration 1 μM) was 39%; in the assay on PC3 cells (setting [1]), -7%.

As for `O=C(NCCCn1ccnc1)c1ccc2nc(CN3CCOCC3)c(-c3ccccc3)nc2c1` [Compound I-88, N-[3-(1H-imidazol-1-yl)propyl]-2-(morpholin-4-ylmethyl)-3-phenylquinoxaline-6-carboxamide], the IC50 on hNAMPT protein lay in the range of 1000 to 2000 nM. In addition, the results for the inhibition at 1 µM on hNAMPT protein (compound concentration 1 μM) and in the assay with PC3 cells (setting [1]) were 41% and -7%, respectively.

Turning to `NS(=O)(=O)c1cccc(-c2nc3ccc(C(=O)NCCCn4ccnc4)cc3nc2-c2ccccc2)c1` [Compound I-89, N-[3-(1H-imidazol-1-yl)propyl]-3-phenyl-2-(3-sulfamoylphenyl)quinoxaline-6-carboxamide], the IC50 on hNAMPT protein was 100 to 500 nM. The inhibition at 1 µM on hNAMPT protein (compound concentration 1 μM) is 68%; in the assay with PC3 cells (setting [1]) it was -7%.

With `O=C(NCCCn1ccnc1)c1ccc2nc(N3CCC(O)C3)c(-c3ccccc3)nc2c1` (stereo not drawn) [Compound I-90, 2-(3-hydroxypyrrolidin-1-yl)-N-[3-(1H-imidazol-1-yl)propyl]-3-phenylquinoxaline-6-carboxamide], the IC50 at hNAMPT protein was in the range of 500 to 1000 nM. Further, the values for the inhibition at 1 µM at hNAMPT protein (compound concentration 1 μM) and with PC3 cells (setting [1]) were 54% and -7%, respectively.

Regarding `COc1cccc(-c2nc3cc(C(=O)NCCCc4ncc[nH]4)ccc3nc2N2CCC(N3CCOCC3)CC2)c1` [Compound I-91, N-[3-(1H-imidazol-2-yl)propyl]-3-(3-methoxyphenyl)-2-[4-(morpholin-4-yl)piperidin-1-yl]quinoxaline-6-carboxamide], the IC50 at hNAMPT protein is less than 100 nM. In addition, at hNAMPT protein (compound concentration 1 μM), the inhibition at 1 µM was determined as 99%. Moreover, the inhibition at 1.667 µM with PC3 cells (setting [2]) was 2%.

For `O=C(NCCCn1ccnc1)c1ccc2nc(-c3ccccn3)c(-c3ccccc3)nc2c1` [Compound I-92, N-[3-(1H-imidazol-1-yl)propyl]-3-phenyl-2-(pyridin-2-yl)quinoxaline-6-carboxamide], at hNAMPT protein, the half-inhibitory concentration (IC50) was in the range of 1000 to 2000 nM. The figures for the inhibition at 1 µM at hNAMPT protein (compound concentration 1 μM) and in the assay on PC3 cells (setting [1]) were 48% and -7%, respectively.

As to `O=C(NCCc1cccnc1)c1ccc2nc(-c3ccccc3)c(-c3ccccc3)nc2c1` [Compound I-93, 2,3-diphenyl-N-[2-(pyridin-3-yl)ethyl]quinoxaline-6-carboxamide], at hNAMPT protein, the concentration for half-maximal inhibition (IC50) is 500 to 1000 nM. For the same molecule, the results for the inhibition at 1 µM on hNAMPT protein (compound concentration 1 μM) and with PC3 cells (setting [1]) were 52% and 15%, respectively.

As to `O=C(NCCCc1cn[nH]c1)c1ccc2nc(N3CCCCC3)c(-c3ccc(F)cc3)nc2c1` [Compound I-94, 3-(4-fluorophenyl)-2-(piperidin-1-yl)-N-[3-(1H-pyrazol-4-yl)propyl]quinoxaline-6-carboxamide], the IC50 on hNAMPT protein was less than 100 nM. Further, the inhibition at 1 µM on hNAMPT protein (compound concentration 1 μM) was 92%. Also, the inhibition at 1.667 µM with PC3 cells (setting [2]) was determined as 34%.

In the case of `O=C(NCCCn1ccnc1)c1ccc2nc(-c3ccccc3)c(-c3cccc(OC(F)(F)F)c3)nc2c1` [Compound I-95, N-[3-(1H-imidazol-1-yl)propyl]-2-phenyl-3-[3-(trifluoromethoxy)phenyl]quinoxaline-6-carboxamide], at hNAMPT protein, the IC50 fell in the range of 500 to 1000 nM. Moreover, the inhibition at 1 µM was 61% at hNAMPT protein (compound concentration 1 μM) and 1% with PC3 cells (setting [1]).

In the case of `O=C(NCCCn1ccnc1)c1ccc2nc(N3CCOCC3)c(-c3ccccc3)nc2c1` [Compound I-96, N-[3-(1H-imidazol-1-yl)propyl]-2-(morpholin-4-yl)-3-phenylquinoxaline-6-carboxamide], the IC50 on hNAMPT protein lay within 100 to 500 nM. Further, the inhibition at 1 µM was found to be 82% on hNAMPT protein (compound concentration 1 μM) and 0% in the assay on PC3 cells (setting [1]).

For the molecule `O=C(NCCCn1ccnc1)c1ccc2nc(-c3ccccc3)c(-c3ccc4[nH]ccc4c3)nc2c1` [Compound I-97, N-[3-(1H-imidazol-1-yl)propyl]-3-(1H-indol-5-yl)-2-phenylquinoxaline-6-carboxamide], on hNAMPT protein, the half-inhibitory concentration (IC50) was in the range of 500 to 1000 nM. In addition, the inhibition at 1 µM on hNAMPT protein (compound concentration 1 μM) worked out at 58%; with PC3 cells (setting [1]), 1%.

Regarding `COc1ccc(-c2nc3ccc(C(=O)NCCCn4ccnc4)cc3nc2-c2ccccc2)cc1` [Compound I-99, N-[3-(1H-imidazol-1-yl)propyl]-2-(4-methoxyphenyl)-3-phenylquinoxaline-6-carboxamide], the IC50 at hNAMPT protein fell in the range of 100 to 500 nM. The inhibition at 1 µM is 75% on hNAMPT protein (compound concentration 1 μM) and -8% in the assay with PC3 cells (setting [1]).

For the molecule `O=C(NCCCn1ccnc1)c1ccc2nc(N3CCCC(O)C3)c(-c3ccccc3)nc2c1` (stereo not drawn) [Compound I-100, 2-(3-hydroxypiperidin-1-yl)-N-[3-(1H-imidazol-1-yl)propyl]-3-phenylquinoxaline-6-carboxamide], on hNAMPT protein, the IC50 is 100 to 500 nM. Further, the inhibition at 1 µM on hNAMPT protein (compound concentration 1 μM) is 85%; in the assay on PC3 cells (setting [1]) it was -7%.

With `CS(=O)(=O)C1CCN(c2nc3cc(C(=O)NCCCn4ccnc4)ccc3nc2-c2ccccc2)C1` (stereo not drawn) [Compound I-101, N-[3-(1H-imidazol-1-yl)propyl]-3-[3-(methylsulfonyl)pyrrolidin-1-yl]-2-phenylquinoxaline-6-carboxamide], the 50% inhibitory concentration (IC50) at hNAMPT protein was 2000 to 10000 nM. Further, the inhibition at 1 µM was determined as 16% on hNAMPT protein (compound concentration 1 μM) and 7% in the assay with PC3 cells (setting [1]).

`O=C(NCCc1ncc[nH]1)c1ccc2nc(Cl)c(-c3ccc(F)cc3)nc2c1` [Compound I-102, 2-chloro-3-(4-fluorophenyl)-N-[2-(1H-imidazol-2-yl)ethyl]quinoxaline-6-carboxamide]: the half-maximal inhibitory concentration (IC50) on hNAMPT protein is 500 to 1000 nM. In addition, the inhibition at 1 µM on hNAMPT protein (compound concentration 1 μM) amounted to 38%. In addition, the inhibition at 1.667 µM in the assay on PC3 cells (setting [2]) is greater than 99%.

`O=C(NCCCc1ccnnc1)c1ccc2nc(N3CCCCC3)c(-c3ccc(F)cc3)nc2c1` [Compound I-103, 3-(4-fluorophenyl)-2-(piperidin-1-yl)-N-[3-(pyridazin-4-yl)propyl]quinoxaline-6-carboxamide]: at hNAMPT protein, the half-inhibitory concentration (IC50) is less than 100 nM. Moreover, on hNAMPT protein (compound concentration 1 μM), the inhibition at 1 µM worked out at 96%. Moreover, in the assay with PC3 cells (setting [2]), the inhibition at 1.667 µM came out at 58%.

`O=C(NCCCc1ncc[nH]1)c1ccc2nc(N3CCOCC3)c(-c3ccc(Cl)cc3)nc2c1` [Compound I-104, 3-(4-chlorophenyl)-N-[3-(1H-imidazol-2-yl)propyl]-2-(morpholin-4-yl)quinoxaline-6-carboxamide]: on hNAMPT protein, the IC50 was less than 100 nM. Further, the inhibition at 1 µM at hNAMPT protein (compound concentration 1 μM) came out at 100%. Further, in the assay on PC3 cells (setting [2]), the inhibition at 1.667 µM came to 2%.

Regarding `O=C(NCCCn1ccnc1)c1ccc2nc(N3CCC(O)CC3)c(-c3ccccc3)nc2c1` [Compound I-105, 2-(4-hydroxypiperidin-1-yl)-N-[3-(1H-imidazol-1-yl)propyl]-3-phenylquinoxaline-6-carboxamide], at hNAMPT protein, the IC50 was less than 100 nM. The inhibition at 1 µM on hNAMPT protein (compound concentration 1 μM) was 92%; with PC3 cells (setting [1]), -7%.

Regarding `N#CC1CCN(c2nc3ccc(C(=O)NCCCn4ccnc4)cc3nc2-c2ccccc2)C1` (stereo not drawn) [Compound I-106, 2-(3-cyanopyrrolidin-1-yl)-N-[3-(1H-imidazol-1-yl)propyl]-3-phenylquinoxaline-6-carboxamide], the IC50 at hNAMPT protein fell in the range of 500 to 1000 nM. Moreover, the figures for the inhibition at 1 µM on hNAMPT protein (compound concentration 1 μM) and with PC3 cells (setting [1]) were 60% and -5%, respectively.

With `O=C(NCCCn1ccnc1)c1ccc2nc(-c3ccco3)c(-c3ccco3)nc2c1` [Compound I-107, 2,3-di(2-furyl)-N-[3-(1H-imidazol-1-yl)propyl]quinoxaline-6-carboxamide], on hNAMPT protein, the IC50 lay in the range of 1000 to 2000 nM. Moreover, the inhibition at 1 µM at hNAMPT protein (compound concentration 1 μM) is 47%; in the assay with PC3 cells (setting [1]) it was 102%.

`Cn1ccc(CCNC(=O)c2ccc3nc(-c4ccc(F)cc4)c(-c4ccc(F)cc4)nc3c2)n1` [Compound I-108, 2,3-bis(4-fluorophenyl)-N-[2-(1-methyl-1H-pyrazol-3-yl)ethyl]quinoxaline-6-carboxamide]: at hNAMPT protein, the IC50 lay within 1000 to 2000 nM. The results for the inhibition at 1 µM at hNAMPT protein (compound concentration 1 μM) and in the assay on PC3 cells (setting [1]) were 44% and 93%, respectively.

Consider `COc1nc2ccc(C(=O)NCCCc3ncc[nH]3)cc2nc1-c1ccc(Cl)cc1` [Compound I-109, 3-(4-chlorophenyl)-N-[3-(1H-imidazol-2-yl)propyl]-2-methoxyquinoxaline-6-carboxamide], for which, at hNAMPT protein, the half-inhibitory concentration (IC50) was less than 100 nM. The inhibition at 1 µM on hNAMPT protein (compound concentration 1 μM) is 97%. In addition, the inhibition at 1.667 µM in the assay with PC3 cells (setting [2]) came to 36%.

In general, IC50 refers to the point on the concentration scale where inhibition reaches its midpoint. As usually defined, the inhibition is the drop in the measured response relative to a control, in per cent.
